Legend:
Type in all cases: physicochemical
pKa value measured = assay: pKa value measured
[1] = Stability at physiological pH; details: pH 6.8 to 7.4
From the text: Reported local tolerability issues are often linked to insufficient solubity of the compound at physiological pH which, however, is not the case for BC-3781.

[2] = Solubility of BC-3781 acetate in various media
From the text: The solubility of BC-3781 acetate in various media is as follows: […]

Row | pKa (pKa value measured) | Stability at physiological pH [1] | solubility ([2]; aqueous buffer, pH 7.4 (300 mM phosphate buffer)) | solubility ([2]; water) | Compound
1 | 9.41 | excellent stability | – | – | C=C[C@]1(C)C[C@@H](OC(=O)CS[C@@H]2CC[C@@H](N)C[C@H]2O)[C@]2(C)[C@H](C)CC[C@]3(CCC(=O)[C@H]32)[C@@H](C)[C@@H]1O [BC-3781, 14-O-{[(1R, 2R, 4R)-4-amino-2-hydroxy-cyclohexylsulfanyl]-acetyl}-mutilin]
2 | – | – | ≥ 100 mg/mL | ≥ 100 mg/mL | C=C[C@]1(C)C[C@@H](OC(=O)CS[C@@H]2CC[C@@H](N)C[C@H]2O)[C@]2(C)[C@H](C)CC[C@]3(CCC(=O)[C@H]32)[C@@H](C)[C@@H]1O [BC-3781 acetate, 14-O-{[(1R, 2R, 4R)-4-amino-2-hydroxy-cyclohexylsulfanyl]-acetyl}-mutilin]

Reference: US20250009885A1, “INJECTABLE PHARMACEUTICAL FORMULATIONS OF LEFAMULIN” (NABRIVA THERAPEUTICS GMBH, priority 2015, published 2025)
